US20260335282A1, “NOVEL 3-ARYLIDENE-2-INDOLINONE DERIVATIVES FOR THERAPEUTIC USE” (ISTANBUL UNIVERSITESI REKTORLUGU, priority 2022, published 2026)
pIC50: −log10 of the molar value. “Also recorded” adds a separate entry of the source.

Columns and labels:
Format in all cases: cell-based, human
MCF-7 cells = test: MTT cytotoxicity, breast cancer cells MCF-7; conditions: MTT, no * mark (incubation time not specified)
Description: (§1) The cytotoxicity, general tyrosine kinase inhibitory effects and cell death (apoptosis/necrosis) assays of 1-benzyl-3-(1H-indol-3-ylmethylidene)-1,3-dihydro-2H-indol-2-one derivatives (Formula 5) of the present invention are studied by the following methods. […] HUVEC (human umbilical vein endothelial cell), MCF-10F (human breast epithelial cell) and Beas2b (human lung bronchial epithelial cell) cell lines have been used as healthy control cells in MTT experiments.
(§2) Beas2b (human lung bronchiole epithelial cell) and HEK293 (renal tubule epithelium) cells used as normal cell lines were cultured in RPMI medium, and HUVEC (human umbilical cord endothelial cells) and MCF-10F (human breast epithelial cell) cells are cultured in DMEM medium containing 100 µg/ml penicillin/streptomycin. The cells, which covered 70% of the culture flask, are washed with phosphate buffer and then removed from the surface of the flask by application of trypsin-ethylenediamine tetraacetic acid (Trypsin-EDTA; 0.25%) solution, passaged, counted and seeded on appropriate plates before each experiment. Cells are treated with a total of 45 2-indolinone compounds (5) at concentrations of 0.1, 1, 5 and 10 μM. Stock compounds are prepared in 1 ml dimethylsulfoxide (DMSO) and 4 different dilutions were prepared with medium and performed to the cells. Control group cells are treated with DMSO at a similar concentration to the experimental groups.
(§3) MTT (3-(4,5-dimethylthiazol-2-yl)-2,5-diphenyl-2H-tetrazolium bromide) colorimetric assay provides quantitation of viable cells with ongoing mitochondrial activity in culture medium. According to the standard procedure in cell culture conditions, cells are maintained in RPMI-1640 and DMEM culture media containing 10% FBS and 1% penicillin/streptomycin. The trypan blue test is used for cell counts.
(§4) The effects of 45 2-indolinone compounds (5) on cell viability in all cancer cell lines are investigated by MTT assay. Cells are seeded in a 96-well flat bottom plate with 5000 cells in each well and 2-indolinone compounds (5) at concentrations of 0.1, 1, 5 and 10 μM are performed to the cells the next day. After 48 and/or 72 hours following treatment with 2-indolinone compounds, 50 μl of the supernatant is slowly discarded (as it was acid medium) and MTT at a concentration of 5 mg/ml is added to each well in a volume of 10 μl. After incubation for 4 hours, the formazan crystals formed in the wells are dissolved by adding 100 μl DMSO and the optical density is read at 570 nm test wavelength and 630 nm reference wavelength. Cell viability is expressed as % cell viability by comparing the absorbance of control and test wells. IC50 value is calculated from the dose-response curves prepared for each compound. In addition, the possible DMSO effect is eliminated by preparing negative control wells compatible with the amount of DMSO contained in the compounds. To understand the reaction of the compounds with MTT, cell-free (MTT+compounds) negative controls are prepared at the concentrations used (Mosmann, 1983). […] The absorbance values obtained are compared to the control and statistically evaluated by unpaired t-test using “Graphpad Prism 5.04” software. “P<0.05” is accepted as significant. When evaluating cytotoxic effects, the present inventors aim for the inventive compounds to be effective in cancer cells and ineffective in healthy cells. The inventive compounds have also been compared with sunitinib, one of the reference chemotherapy drugs currently used in treatment.
(§5) Among the compounds of the present invention, those that killed cancer cells by at least 50% (p<0.05) are selected and tested whether a 10-fold concentration of the M concentration at the IC50 value is toxic to normal healthy cells.

MDA-MB-231 cells = test: MTT cytotoxicity, breast cancer cells MDA-MB-231; conditions: read-out: IC50, MDA-MB-231 (breast); MTT, no * mark (incubation time not given)
Description: as §1, §2, §3, §4, §5

A549 cells = test: MTT cytotoxicity, lung cancer cells A549; conditions: no * mark (incubation time not specified)
Description: as §1, §2, §3, §4, §5

CAKI-1 cells = test: MTT cytotoxicity, kidney cancer cells CAKI-1; conditions: no * mark (incubation time not specified)
Description: as §1, §2, §3, §4, §5

A498 cells = test: MTT cytotoxicity, kidney cancer cells A498; conditions: MTT, no * mark (incubation time not specified)
Description: as §1, §2, §3, §4, §5

MCF-10F/Beas2b cells = test: MTT cytotoxicity, healthy cells MCF-10F/Beas2b; conditions: for Selectivite Index, MCF-10F/Beas2b (Table 2): MCF-10F/Beas2b vs colon or pancreas cancer cells, cancer line not given
Description: as §1, §2, §3, §4, §5

HUVEC cells = test: MTT cytotoxicity, healthy cells HUVEC; conditions: for Selectivite Index, HUVEC (Table 2): HUVEC vs colon or pancreas cancer cells, cancer line not given; for pIC50: MTT, no * mark (incubation time not specified)
Description: as §1, §2, §3, §4, §5

HT-29 cells = test: MTT cytotoxicity, colon cancer cells HT-29; conditions: MTT, no * mark (incubation time not specified)
Description: as §1, §2, §3, §4

HCT-116 cells = test: MTT cytotoxicity, colon cancer cells HCT-116; conditions: no * mark (incubation time not specified)
Description: as §1, §2, §3, §4

MIAPaCa-2 cells [1] = test: MTT cytotoxicity, pancreas cancer cells MIAPaCa-2; conditions: for pIC50: MTT, no * mark (incubation time not specified); for selectivity index: MCF-10F/Beas2b vs MIAPaCa-2
Description: as §1, §2, §3, §4

[2] = system: general tyrosine kinase activity in MIA PaCa-2 pancreas cancer cells; test: General tyrosine kinase activity (ELISA) in MIAPaCa-2 cells; conditions: 72 hours, IC50 concentration
Procedure: Takara Universal Tyrosine Kinase Assay Kit is used to determine the effects of 11 2-indolinone compounds (Y1, Y2, Y3, Y4, Y5, Y8, […], […], Y21, Y23, 20C, 22C) on general tyrosine kinase activity in cancer cells. Cells are seeded in 6-well plates (4.10^5 cells/well) and the IC50 concentration of each selected molecule is performed to the cells for 48 or 72 hours. Cells in the control group are incubated with medium only. At the end of the incubation period, the cells in each well are washed with PBS and cells are removed from the wells using a cell scraper via 1 ml of the extraction buffer in the kit. The cell lysate is transferred to ependorf tubes and centrifuged at 10.000 g for 10 minutes at +4° C. and the supernatant is used as a sample for activity determination. After the extracts obtained from the control and experimental groups are diluted 1:25, 40 μl extracts is transferred to two wells in the 96-well plate in the kit. In addition, the standard solution in the kit is diluted according to the kit instructions and each concentration is transferred 40 μl into three wells. 10 μl of 40 mM ATP-2Na solution is added to all wells and the plate is incubated at 37° C. for 30 minutes. After incubation, all wells are washed 4 times with wash buffer. 100 μl of blocking solution is added to each well and incubated again at 37° C. for 30 minutes. After incubation, the liquid in the wells is discarded and 50 μl of anti-phosphotyrosine-HRP solution is added to each well and incubated at 37° C. for 30 minutes. The wells are washed again four times with wash buffer and 100 μl of HRP-substrate solution (TMBZ) is added to each well and incubated at 37° C. for 15 minutes. The reaction is finished by adding 100 μl of stop solution to each well and the optical density in each well is measured at 405 nm with a microplate reader (BioTek, USA). The tyrosine kinase activity in each sample is calculated from the standard curve obtained from the absorbance values of the standard solutions with the kit (Chan W Y, Lau P M, Yeung K W, Kong S K. The second generation tyrosine kinase inhibitor dasatinib induced eryptosis in human erythrocytes—An in vitro study. Toxicol Lett. 2018; 295:10-21). This activity is normalized compared to the control group by dividing by the amount of protein in each sample.
The effects of 11 2-indolinone compounds (Y1, Y2, Y3, Y4, Y5, Y8, Y14, Y21, Y23, 20C and 22C) having the structure of formula (5), which are prominent with their cytotoxicity in A498, MIAPaCa-2 and HCT-116 cancer cell lines and nontoxic properties in healthy cells, on general tyrosine kinase activity in cancer cells are determined.

MIAPaCa-2 cells [3] = test: Apoptosis/necrosis detection, Annexin V/PI flow cytometry, MiaPaca-2; conditions: for necrosis compared to control: MiaPaca-2; for apoptosis (early and late) compared to control: MiaPaca-2, IC50 values
Procedure: (§6) After incubation with 2-indolinone compounds (IC50 μM concentration; 48 and/or 72 hours), cells are washed twice with PBS and the cell pellet is suspended in Annexin V binding buffer. After this incubation, cells are incubated with FITC-conjugated Annexin V and propidium iodine staining solution for 15 minutes in the dark and at room temperature. Then, cells are analyzed by flow cytometry (Beckman coulter, Navios) (Wlodkowic, D., Skommer, J, Darzynkiewicz, Z. 2009. Flow cytometry-based apoptosis detection, Methods Mol Biol., 559, 1-14).

[4] = system: pancreas and kidney cancer cells; test: Apoptosis detection, Annexin V/PI flow cytometry, pancreas and kidney cancer cells
Procedure: as §6
Whether the 2-indolinone derivatives (5) with the highest selectivity index and general TKI activity stimulated apoptosis and necrosis is determined by Annexin V and propidium iodine staining in pancreas and kidney cancer cells. Annexin V/PI flow cytometry apoptosis values of the tested compounds Y1, Y2, Y3, Y4, Y8 and Y14 are found to be 40% and above in correlation with MTT results. The apoptosis rates of the control groups and the substances are analyzed by t test in GraphPad version 9.0.

SMILES	pIC50 (MCF-7 cells)	pIC50 (MDA-MB-231 cells)	pIC50 (A549 cells)	pIC50 (CAKI-1 cells)	pIC50 (A498 cells)	Selectivite Index, MCF-10F/Beas2b (Table 2) (MCF-10F/Beas2b cells)	pIC50 (MCF-10F/Beas2b cells; MTT, no * mark (incubation time not specified))	Selectivite Index, HUVEC (Table 2) (HUVEC cells)	pIC50 (HUVEC cells)	pIC50 (HT-29 cells)	pIC50 (HCT-116 cells)	pIC50 (MIAPaCa-2 cells [1])	general tyrosine kinase activity compared to control [2]	necrosis compared to control (MIAPaCa-2 cells [3])	apoptosis (early and late) compared to control (MIAPaCa-2 cells [3])	Annexin V/PI flow cytometry apoptosis values [4] [%]	selectivity index (MIAPaCa-2 cells [1])
Cn1cc(/C=C2\C(=O)N(Cc3ccccc3)c3ccc(OC(F)(F)F)cc32)c2ccccc21 [Y14]	5.22	< 5.00	< 5.00	< 5.00	< 5.00	45.06	5.17	> 66.66	< 5.00	< 5.00	< 5.00	6.82	significantly decreased; also recorded: decreased the general tyrosine kinase activity	did not cause necrosis	increase in apoptosis at IC50 values was statistically significant	≥ 40	–
O=C1/C(=C\c2c[nH]c3ccccc23)c2cc(F)ccc2N1Cc1ccccc1 [Y5]	5.35	5.10	5.11	5.47	5.36	> 37.04	–	8.04	5.66	5.53	5.69	6.57	significantly decreased; also recorded: decreased the general tyrosine kinase activity	did not cause necrosis	increase in apoptosis at IC50 values was statistically significant	–	> 37
O=C1/C(=C\c2c[nH]c3ccccc23)c2cc(Cl)ccc2N1Cc1ccccc1 [Y2]	5.38	5.30	5.39	5.37	5.63	> 20.83	–	2.21	5.97	5.82	5.84	6.32	significantly decreased; also recorded: decreased the general tyrosine kinase activity	–	–	≥ 40	> 21
